Data taken from ChEMBL document CHEMBL1145821, “Dihydrofolate reductase mutant with exceptional resistance to methotrexate but not to trimetrexate” (J Med Chem, 2003).

Assays:
[1] = molecular target: T1, Dihydrofolate reductase (Mus musculus, UniProt P00375); test: Combined effect of active site mutation F31A and F34A on inhibitory effect for F31A/F34A murine dihydrofolate reductase (DHFR)
[2] = molecular target: T2, Dihydrofolate reductase (Mus musculus, UniProt P00375); test: Inhibitory constant for F31A/F34A murine dihydrofolate reductase (DHFR)
T2 sequence (P00375 whole entry): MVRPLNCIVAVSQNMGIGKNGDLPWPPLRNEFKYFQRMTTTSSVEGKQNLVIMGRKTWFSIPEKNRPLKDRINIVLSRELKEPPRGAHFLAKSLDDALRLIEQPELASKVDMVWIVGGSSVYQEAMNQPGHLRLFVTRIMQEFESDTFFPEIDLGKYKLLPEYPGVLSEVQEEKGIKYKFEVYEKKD

[3] = molecular target: T1, Dihydrofolate reductase; test: Combined effect of active site mutation F31A and F34A on inhibitory effect for murine Wild-type dihydrofolate reductase (DHFR)
[4] = molecular target: T3, Dihydrofolate reductase (Mus musculus) (UniProt P00375)
T3 sequence (whole entry): T2 sequence (P00375 whole entry)

[5] = molecular target: T2, Dihydrofolate reductase; test: Inhibitory constant for murine Wild-type dihydrofolate reductase (DHFR)

Structure (SMILES) | Ki·kcat/Km [1] | Ki [2] | Ki·kcat/Km [3] | Kimut/Kiwt [4] | Ki [5]
CN(Cc1cnc2nc(N)nc(N)c2n1)c1ccc(C(=O)NC(CCC(=O)NCCCCCCCCCCCCNC(=O)CCC(NC(=O)c2ccc(N(C)Cc3cnc4nc(N)nc(N)c4n3)cc2)C(=O)O)C(=O)O)cc1 (centres undefined) | 0.112 s⁻¹ | 212 nM | 0.00126 s⁻¹ | 4410 | 
COc1cc(NCc2ccc3nc(N)nc(N)c3c2C)cc(OC)c1OC [TRIMETREXATE] | 0.00043 s⁻¹ | 0.81 nM | 0.00158 s⁻¹ | 13.5 | 0.06 nM
